We go through 52 compounds from patent US20260200890A1, “ADAR1 INHIBITORS AND METHODS OF USING THE SAME” (AVAMMUNE THERAPEUTICS INC., priority 2022, published 2026).

In the assay the target is T1, ADAR1 (Homo sapiens, UniProt P55265).
T1 construct: endogenous in cells; host or cells: p110 KO A549 dual cells
T1 sequence (P55265 1-1226): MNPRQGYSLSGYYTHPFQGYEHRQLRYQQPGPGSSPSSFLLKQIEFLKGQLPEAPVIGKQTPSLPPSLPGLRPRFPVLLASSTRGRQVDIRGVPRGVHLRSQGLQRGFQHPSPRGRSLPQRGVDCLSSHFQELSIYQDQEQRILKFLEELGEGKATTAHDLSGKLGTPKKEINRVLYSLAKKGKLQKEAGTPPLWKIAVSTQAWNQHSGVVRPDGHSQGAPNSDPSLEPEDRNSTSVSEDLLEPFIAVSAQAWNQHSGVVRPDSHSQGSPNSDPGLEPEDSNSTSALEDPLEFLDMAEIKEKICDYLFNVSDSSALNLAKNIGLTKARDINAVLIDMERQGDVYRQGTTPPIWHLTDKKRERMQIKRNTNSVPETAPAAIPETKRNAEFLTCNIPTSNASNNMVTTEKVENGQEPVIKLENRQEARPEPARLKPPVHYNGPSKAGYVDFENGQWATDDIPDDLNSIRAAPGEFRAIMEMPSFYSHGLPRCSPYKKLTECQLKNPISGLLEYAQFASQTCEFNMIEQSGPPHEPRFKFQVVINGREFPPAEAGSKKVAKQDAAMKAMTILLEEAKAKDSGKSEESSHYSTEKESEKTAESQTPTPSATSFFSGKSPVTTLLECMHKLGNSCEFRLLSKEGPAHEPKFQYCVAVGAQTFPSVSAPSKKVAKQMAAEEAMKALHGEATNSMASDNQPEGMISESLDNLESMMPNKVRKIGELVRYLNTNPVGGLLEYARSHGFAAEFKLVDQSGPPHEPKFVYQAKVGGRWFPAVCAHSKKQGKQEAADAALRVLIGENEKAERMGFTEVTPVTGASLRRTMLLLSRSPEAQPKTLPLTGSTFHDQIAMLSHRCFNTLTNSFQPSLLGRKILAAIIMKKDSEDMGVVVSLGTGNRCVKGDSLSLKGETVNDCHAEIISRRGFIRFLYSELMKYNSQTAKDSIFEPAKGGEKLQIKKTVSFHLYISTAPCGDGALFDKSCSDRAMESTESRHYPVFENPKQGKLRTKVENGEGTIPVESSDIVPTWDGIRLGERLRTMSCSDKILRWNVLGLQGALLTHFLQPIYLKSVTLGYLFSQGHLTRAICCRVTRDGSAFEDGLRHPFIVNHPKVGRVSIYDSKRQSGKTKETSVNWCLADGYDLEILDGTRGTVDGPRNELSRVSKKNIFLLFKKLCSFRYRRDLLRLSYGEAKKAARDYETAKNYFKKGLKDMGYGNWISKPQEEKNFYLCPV
Nature of the assay: ADAR1 Inhibition Assay (IFN fold-induction, Quanti-Luc luminescence, p110 KO A549 dual cells). It is filed as cell-based. Particulars: IFN fold-induction vs DMSO, 24 and 48 h. The method, boiled down:
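EC50 derived from IFN fold-induction, calculated as sample RLU over average DMSO RLU. Luminescence measured by Quanti-Luc on samples taken after 24 and 48 h of compound exposure (1% DMSO final, 37 °C, 5% CO2). Cells were p110 KO A549 dual, seeded at 20,000 per well in supplemented DMEM.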

As usually defined, the EC50 is the concentration needed to bring the measured effect to its halfway point. A lower EC50 goes with greater potency. The compound `CCOC(=O)c1cc(-c2ccccc2)sc1-c1coc(/C=N\c2cccc(NS(C)(=O)=O)c2)c1` [Compound 313] registered an EC50 of over 100 µM.

Turning to `CCOC(=O)c1cc(-c2ccccc2)sc1NC(=O)COC(=O)c1cccc(Br)c1` [Compound 314], the EC50 lay within 50 to 100 µM. For `CCOC(=O)c1cc(Sc2ccccc2)sc1NC(=O)COC(=O)c1cccc(NS(C)(=O)=O)c1` [Compound 315] the value was over 100 µM. The same measure for `CCOC(=O)c1cc(-c2ccc3c(c2)OCO3)sc1NC(=O)COC(=O)c1cccc(NS(C)(=O)=O)c1` [Compound 316]: over 100 µM. The same measure for `CCOC(=O)c1cc(-c2ccc3c(c2)OCCO3)sc1NC(=O)COC(=O)c1cccc(NS(C)(=O)=O)c1` [Compound 317]: over 100 µM.

As for `COC(=O)c1sc(-c2ccccc2)cc1NC(=O)COC(=O)c1cccc(S(N)(=O)=O)c1` [Compound 318], the EC50 is 50 to 100 µM. For `CCOC(=O)c1cc(-c2ccccc2)sc1NC(=O)Cn1ccc(=O)c(O)c1C` [Compound 319] the value was over 100 µM; for `COC(=O)c1scc(-c2ccccc2)c1NC(=O)COC(=O)c1cccc(NS(C)(=O)=O)c1` [Compound 320], over 100 µM; for `CCOC(=O)c1cc(-c2ccccc2)sc1NC(=O)COC(=O)c1cccc(NS(=O)(=O)c2c(C)noc2C)c1` [Compound 322], over 100 µM. For `CCOC(=O)c1cc(-c2ccccc2)sc1NC(=O)c1cccc(NC(=O)c2cccc(NS(C)(=O)=O)c2)c1` [Compound 323] the value was over 100 µM; for `CCOC(=O)c1cc(-c2ccccc2)sc1NC(=O)CCSc1cccc(NS(C)(=O)=O)c1` [Compound 324], over 100 µM.

As for `COC(=O)c1sc(-c2ccccc2)cc1NC(=O)CNC(=O)c1cccc(NS(C)(=O)=O)c1` [Compound 332], the EC50 is over 100 µM. For `CCOC(=O)c1cc(-c2ccccc2)sc1NC(=O)C1CCN(C(=O)Cc2cccc(NS(C)(=O)=O)c2)C1` (stereo not shown) [Compound 333] the value was 50 to 100 µM; for `CCOC(=O)c1cc(-c2ccccc2)sc1NC(=O)CN1CCN(C(=O)Cc2cccc(NS(C)(=O)=O)c2)CC1` [Compound 334], over 100 µM; for `CCOC(=O)c1cc(-c2ccc3c(cnn3C)c2)sc1NC(=O)CNC(=O)Cc1cccc(NS(C)(=O)=O)c1` [Compound 335], over 100 µM. For `CCOC(=O)c1cc(-c2ccccc2)sc1NC(=O)CN(C)C(=O)Cc1cccc(NS(C)(=O)=O)c1` [Compound 336] the value was over 100 µM.

In the case of `CCOC(=O)c1cc(-c2ccccc2)sc1NC(=O)C(C)NC(=O)Cc1cccc(NS(C)(=O)=O)c1` (stereo not shown) [Compound 337], the half-maximal effective concentration (EC50) is over 100 µM. `CCOC(=O)c1cc(-c2ccccc2)sc1NC(=O)CNC(=O)Cc1cccc(S(C)(=N)=O)c1` (stereo not shown) [Compound 338] came in with an EC50 of over 100 µM. For `CCOC(=O)c1cc(-c2ccccc2)sc1NC(=O)CNC(=O)c1ccc2ccn(S(C)(=O)=O)c2c1` [Compound 339], the EC50 was over 100 µM. As to `CCOC(=O)c1cc(-c2ccccc2)sc1NC(=O)COC(=O)c1ccc2ccn(S(C)(=O)=O)c2c1` [Compound 340], the EC50 is over 100 µM. In turn, `CCOC(=O)c1cc(-c2ccccc2)sc1NC(=O)CNC(=O)c1cccc(CNS(C)(=O)=O)c1` [Compound 342] yielded an EC50 of over 100 µM. For `CCOC(=O)c1cc(P(=O)(OCC)OCC)sc1NC(=O)COC(=O)c1cccc(NS(C)(=O)=O)c1` [Compound 345] the value was over 100 µM; for `CCOC(=O)c1cc(NC(=O)COC(=O)c2cccc(NS(C)(=O)=O)c2)nn1-c1ccccc1` [Compound 347], over 100 µM. For `CCOC(=O)c1cc(-c2ccccc2)sc1NC(=O)CNC(=O)Cc1cccc(P(=O)(OCC)OCC)c1` [Compound 348] the value was over 100 µM.

Compound `CCOC(=O)c1cc(-c2ccccc2)[nH]c1NC(=O)COC(=O)c1cccc(NS(C)(=O)=O)c1` [Compound 352] had an EC50 of over 100 µM. In the case of `CCOC(=O)c1cc(-c2ccccc2)sc1NC(=O)Cn1cc(CN(c2cccc(N)c2)S(C)(=O)=O)nn1` [Compound 353], the EC50 was over 100 µM. For the compound `CCOC(=O)c1sc(-c2ccccc2)cc1NC(=O)COC(=O)c1cccc(NS(C)(=O)=O)c1` [Compound 354], the EC50 is over 100 µM. Compound `CCOC(=O)c1cc(-c2ccccc2)sc1NC(=O)Cn1cc(CSc2cccc(NS(C)(=O)=O)c2)nn1` [Compound 360] displayed an EC50 of over 100 µM. For the compound `CCOC(=O)c1cc(-c2ccccc2)sc1NC(=O)Cn1cc(CS(=O)(=O)c2cccc(NS(C)(=O)=O)c2)nn1` [Compound 362], the EC50 is over 100 µM.

For the compound `CCOC(=O)c1cc(-c2ccccc2)sc1NC(=O)CNC(=O)Cc1ccc(OS(C)(=O)=O)c(NS(C)(=O)=O)c1` [Compound 368], the EC50 is over 100 µM. The same measure for `CCOC(=O)c1sc(-c2ccccc2)cc1NC(=O)COC(=O)c1cccc(P(=O)(OCC)OCC)c1` [Compound 370]: over 100 µM. The same measure for `CCOC(=O)c1cc(-c2ccccc2)sc1NC(=O)CNC(=O)Cc1cccc(S(N)(=O)=O)c1` [Compound 371]: over 100 µM. For `CCOC(=O)c1cc(-c2ccccc2)sc1NC(=O)COC(=O)c1nonc1NS(C)(=O)=O` [Compound 374] the value was over 100 µM; for `CCOC(=O)c1ccnc(-c2ccccc2)c1NC(=O)COC(=O)c1cccc(NS(C)(=O)=O)c1` [Compound 375], over 100 µM. Compound `CCOC(=O)c1cc(-c2ccccc2)sc1NC(=O)CNC(=O)/C=C/c1cccc(NS(C)(=O)=O)c1` [Compound 377] had an EC50 of over 100 µM. `CCOC(=O)c1cc(-c2ccccc2)sc1NC(=O)COC(=O)c1ccc2cc(NS(C)(=O)=O)ccc2c1` [Compound 378]: the EC50 is over 100 µM. Compound `CCOC(=O)c1cc(-c2ccccc2)sc1NC(=O)COC(=O)c1cccc(S(=O)(=O)NC(C)(C)C)c1` [Compound 379] came in with an EC50 of over 100 µM. Compound `CCOC(=O)c1cc(-c2ccccc2)ncc1NC(=O)COC(=O)c1cccc(P(=O)(OCC)OCC)c1` [Compound 381] returned an EC50 of over 100 µM.

For `CCOC(=O)c1cc(-c2ccccc2)ncc1NC(=O)COC(=O)c1cccc(P(=O)(O)O)c1` [Compound 382], the EC50 is over 100 µM. Compound `CCOC(=O)c1cc(-c2ccccc2)sc1NC(=O)C1CCCN1C(=O)c1cccc(P(=O)(OCC)OCC)c1` (stereo not shown) [Compound 383] registered an EC50 of over 100 µM.

Turning to `CCOC(=O)c1cc(-c2ccc(P(=O)(OCC)OCC)cc2)sc1NC(=O)COC(=O)c1cccc(P(=O)(OCC)OCC)c1` [Compound 390], the EC50 was over 100 µM. For `CCOC(=O)c1cc(P(=O)(O)O)sc1NC(=O)COC(=O)c1cccc(NS(C)(=O)=O)c1` [Compound 391] the value was over 100 µM; for `CCOC(=O)c1cc(-c2ccccc2)sc1NC(=O)CN(C)C(=O)c1cccc(P(=O)(OCC)OCC)c1` [Compound 392], 50 to 100 µM; for `CCOC(=O)c1cc(-c2ccccc2)sc1NC(=O)[C@@H]1CCCN1C(=O)c1cccc(P(=O)(OCC)OCC)c1` [Compound 393], over 100 µM. The same measure for `CCOC(=O)c1cc(-c2ccccc2)sc1NC(=O)[C@H]1CCCN1C(=O)c1cccc(P(=O)(OCC)OCC)c1` [Compound 394]: over 100 µM. Turning to `CCOC(=O)c1cc(-c2ccccc2)sc1NC(=O)Cn1cc(CNC(=O)c2cccc(P(=O)(OCC)OCC)c2)nn1` [Compound 401], the EC50 was over 100 µM. In the case of `CCOC(=O)c1cc(-c2ccccc2)sc1NC(=O)C1CCCN1C(=O)c1cccc(P(=O)(O)O)c1` (stereo not shown) [Compound 404], the EC50 fell in the range of 50 to 100 µM.

The compound `CCOC(=O)c1nc(-c2ccccc2)oc1NC(=O)COC(=O)c1cccc(P(=O)(OCC)OCC)c1` [Compound 407] had an EC50 of 50 to 100 µM. The same measure for `CCOC(=O)c1cc(-c2ccccc2)[nH]c1NC(=O)CNC(=O)c1cccc(P(=O)(OCC)OCC)c1` [Compound 408]: 50 to 100 µM; for `CCNC(=O)c1cc(-c2ccccc2)sc1NC(=O)CNC(=O)c1cccc(NS(C)(=O)=O)c1` [Compound 410]: 50 to 100 µM; for `CCOC(=O)c1cc(-c2ccccc2)sc1NC(=O)COC(=O)c1cccc(OP(=O)(N[C@H](C)C(=O)OC(C)C)Oc2ccccc2)c1` (stereo partly shown) [Compound 411]: over 100 µM. As to `CCOC(=O)c1cc(-c2ccccc2)sc1NC(=O)[C@@H]1CCCN1C(=O)c1cccc(P(=O)(O)O)c1` [Compound 413], the EC50 was over 100 µM.
